Test results from patent US7144894B2, “Sulfonamide bicyclic compounds” (Bristol-Myers Squibb Company, priority 2004, dated 2006).
Read-outs that look alike come from different tables or passages of the source.

Experiments:
HPLC log P = format: physicochemical; conditions: pH 7.0
[1] = tested on: β-amyloid peptide formation; assay: Inhibition of β-amyloid peptide formation in human H4 cells; format: cell-based; conditions: H4 cells stably transfected to overexpress HPLAP-APP fusion protein, 18 hrs incubation, Aβ in supernatant, read-out: Binding affinity (IC50 in nM)
Method: γ-Secretase inhibitors were also evaluated using in vitro assays based on the inhibition of Aβ formation in cultured cells. Cultured human cell lines, such as HEK293 and H4 cells, which express APP and γ-secretase activity or transfected derivative cell lines that overexpress wild-type APP, mutant APP, or APP fusion proteins will secrete Aβ peptides into the culture media that can be quantified as previously outlined (Dovey H. et al., J. Neurochem. 2001, 76, 173). The incubation of these cultured cells with γ-secretase inhibitors decreases the production of Aβ peptides. For instance, H4 cells stably transfected to overexpress the HPLAP-APP fusion protein described above were grown as above, detached, and adjusted to 2×10^5 cells/ml. 100 μl of the resulting suspension was then added to each well of a 96-well plate. After 4 hrs, the media was removed and replaced with 100 μl serum-free media containing various dilutions of the test compound. Plates were then incubated for 18 hrs at 37° C. and a 100 μl aliquot of the tissue culture supernatant was removed for determination of Aβ levels using time-resolved fluorescence of the homogenous sample as outlined above. The extent of Aβ inhibition was used to calculate the IC50 value for the test compound.
Representative compounds were evaluated in the above assay and were determined to inhibit Aβ formation.

Compound | chromatographic logP (HPLC log P) | IC50 ([1]; Homo sapiens) | IC50 [1]
CC(C)C[C@H](C(N)=O)N(Cc1ccc2[nH]ccc2c1)S(=O)(=O)c1ccc(Cl)cc1 [Example 2, 2R-(N-indol-5-ylmethyl-N-4-chlorophenylsulfonyl)amino-4-methyl-pentanamide] | 3.81 | 0.25 to 50 nM | –
CC(C)C[C@H](C(N)=O)N(Cc1ccc2c(c1)CCC(=O)N2)S(=O)(=O)c1ccc(Cl)cc1 [Example 7, 2R-(N-(2-oxo-1,2,3,4-tetrahydroquinolin-6-ylmethyl)-N-4-chlorophenylsulfonyl)amino-4-methyl-pentanamide] | – | 50 to 500 nM | –
CC(C)C[C@H](C(N)=O)N(Cc1ccc2c(c1)CCN(Cc1ccccn1)C2=O)S(=O)(=O)c1ccc(Cl)cc1 [Example 13, 2R-(N-(1-oxo-2-(2-pyridylmethyl)-1,2,3,4-tetrahydroisoquinolin-6-ylmethylamino)-N-4-chlorophenylsulonyl)amino-4-methyl-pentanamide] | – | – | 0.25 to 50 nM
CC(C)C[C@H](C(N)=O)N(Cc1ccc2c(c1)CCN(C)C2=O)S(=O)(=O)c1ccc(Cl)cc1 [Example 14, 2R-(N-(1-oxo-2-methyl-1,2,3,4-tetrahydroisoquinolin-6-ylmethylamino)-N-4-chlorophenylsulfonyl)amino-4-methyl-pentanamide] | – | – | 0.25 to 50 nM
CCN1CCc2cc(CN([C@H](CC(C)C)C(N)=O)S(=O)(=O)c3ccc(Cl)cc3)ccc2C1=O [Example 6, 2R-(N-(1-oxo-2-ethyl-1,2,3,4-tetrahydroisoquinolin-6-ylmethylamino)-N-4-chlorophenylsulfonyl)amino-4-methyl-pentanamide] | – | 0.25 to 50 nM | –
CC(C)C[C@H](C(N)=O)N(Cc1ccc2c(c1)CCN2C)S(=O)(=O)c1ccc(Cl)cc1 [Example 10, 2R-(N-1-methylindolin-5-yl-N-4-chlorophenylsulfonyl)methylamino-4-methyl-pentanamide] | – | 0.25 to 50 nM | –
CCN1CCc2cc(CN([C@H](CC3CC3)C(N)=O)S(=O)(=O)c3ccc(Cl)cc3)ccc2C1=O [Example 21, 2R-(N-(1-oxo-2-ethyl-1,2,3,4-tetrahydroisoquinolin-6-ylmethylamino)-N-4-chlorophenylsulfonyl)amino-3-cyclopropyl-propanamide] | – | 0.25 to 50 nM | –
CCC(CC)N1CCc2cc(CN([C@H](CC3CC3)C(N)=O)S(=O)(=O)c3ccc(Cl)cc3)ccc2C1=O [Example 24, 2R-(N-(1-oxo-2-(3-pentyl)-1,2,3,4-tetrahydroisoquinolin-6-ylmethylamino)-N-4-chlorophenylsulfonyl)amino-3-cyclopropyl-propanamide] | – | – | 0.25 to 50 nM
CC(C)C[C@H](C(N)=O)N(Cc1ccc2c(c1)CCN2C(=O)C1CCCC1)S(=O)(=O)c1ccc(Cl)cc1 [Example 12, 2R-(N-1-cyclopentylcarbonylindolin-5-yl-N-4-chlorophenylsulfonyl)methylamino-4-methyl-pentanamide] | – | 0.25 to 50 nM | –
CCCN1CCc2cc(CN([C@H](CC(C)C)C(N)=O)S(=O)(=O)c3ccc(Cl)cc3)ccc2C1=O [Example 15, 2R-(N-(1-oxo-2-propyl-1,2,3,4-tetrahydroisoquinolin-6-ylmethylamino)-N-4-chlorophenylsulfonyl)amino-4-methyl-pentanamide] | – | – | 0.25 to 50 nM
Cc1cc2cc(CN([C@H](CC(C)C)C(N)=O)S(=O)(=O)c3ccc(Cl)cc3)ccc2n1C(=O)OC(C)(C)C [Example 3, 2R-(N-(1-t-Butyloxycarbonyl-2-methylindol-5-ylmethyl)-N-4-chlorophenylsulfonyl)amino-4-methyl-pentanamide] | – | 0.25 to 50 nM | –
COCCN1CCc2cc(CN([C@H](CC(C)C)C(N)=O)S(=O)(=O)c3ccc(Cl)cc3)ccc2C1=O [Example 18, 2R-(N-(1-oxo-2-(2-methoxyethyl)-1,2,3,4-tetrahydroisoquinolin-6-ylmethylamino)-N-4-chlorophenylsulonyl)amino-4-methyl-pentanamide] | – | – | 0.25 to 50 nM
CC(C)C[C@H](C(N)=O)N(Cc1ccc2c(c1)CCN2)S(=O)(=O)c1ccc(Cl)cc1 [Example 9, 2R-(N-indolin-5-yl-N-4-chlorophenylsulfonyl)methylamino-4-methyl-pentanamide] | – | 0.25 to 50 nM | –
CC(C)C[C@H](C(N)=O)N(Cc1ccc2c(c1)CCNC2=O)S(=O)(=O)c1ccc(Cl)cc1 [Example 5, 2R-(N-(1-oxo-1,2,3,4-tetrahydroisoquinolin-6-ylmethyl)-N-4-chlorophenylsulfonyl)amino-4-methyl-pentanamide] | – | 0.25 to 50 nM | –
Cc1cc2cc(CN([C@H](CC(C)C)C(N)=O)S(=O)(=O)c3ccc(Cl)cc3)ccc2[nH]1 [Example 4, 2R-(N-(2-methylindol-5-ylmethyl)-N-4-chlorophenylsulfonyl)amino-4-methyl-pentanamide] | 4.21 | 0.25 to 50 nM | –
CC(C)C[C@H](C(N)=O)N(Cc1ccc2c(c1)CCN(CC1CCC1)C2=O)S(=O)(=O)c1ccc(Cl)cc1 [Example 20, 2R-(N-(1-oxo-2-cyclobutylmethyl-1,2,3,4-tetrahydroisoquinolin-6-ylmethylamino)-N-4-chlorophenylsulfonyl)amino-4-methyl-pentanamide] | – | – | 0.25 to 50 nM
CCCCN1CCc2cc(CN([C@H](CC(C)C)C(N)=O)S(=O)(=O)c3ccc(Cl)cc3)ccc2C1=O [Example 16, 2R-(N-(1-oxo-2-butyl-1,2,3,4-tetrahydroisoquinolin-6-ylmethylamino)-N-4-chlorophenylsulfonyl)amino-4-methyl-pentanamide] | – | – | 0.25 to 50 nM
CC(C)C[C@H](C(N)=O)N(Cc1ccc2c(c1)CCN(Cc1ccccc1)C2=O)S(=O)(=O)c1ccc(Cl)cc1 [Example 17, 2R-(N-(1-oxo-2-benzyl-1,2,3,4-tetrahydroisoquinolin-6-ylmethylamino)-N-4-chlorophenylsulfonyl)amino-4-methyl-pentanamide] | – | – | 0.25 to 50 nM
CC(C)N1CCc2cc(CN([C@H](CC3CC3)C(N)=O)S(=O)(=O)c3ccc(Cl)cc3)ccc2C1=O [Example 23, 2R-(N-(1-oxo-2-(2-propyl)-1,2,3,4-tetrahydroisoquinolin-6-ylmethylamino)-N-4-chlorophenylsulfonyl)amino-3-cyclopropyl-propanamide] | – | – | 0.25 to 50 nM
CCN1CCc2cc(CN([C@H](CC(F)F)C(N)=O)S(=O)(=O)c3ccc(Cl)cc3)ccc2C1=O [Example 22, 2R-(N-(1-oxo-2-ethyl-1,2,3,4-tetrahydroisoquinolin-6-ylmethylamino)-N-4-chlorophenylsulfonyl)amino-4,4-difluorobutanamide] | – | 0.25 to 50 nM | –
CC(C)C[C@H](C(N)=O)N(Cc1ccc2c(c1)CCN(CC1CC1)C2=O)S(=O)(=O)c1ccc(Cl)cc1 [Example 19, 2R-(N-(1-oxo-2-cyclopropylmethyl-1,2,3,4-tetrahydroisoquinolin-6-ylmethylamino)-N-4-chlorophenylsulfonyl)amino-4-methyl-pentanamide] | – | – | 0.25 to 50 nM
